Measured values published in patent US20240165247A1, “NEW PEPTIDE CONJUGATES” (JIANGYIN USUN PHARMACEUTICAL CO., LTD., priority 2021, published 2024).

System: dental ulcer of the patient
Test: Dental treatment: solution sprayed onto dental ulcer of a patient, pain relief
Format: in vivo, human
Conditions: 1 mg/mL solution in normal saline
Experimental: A 1 mg/mL solution of the title compound of Example 1 was prepared in normal saline.
The resultant solution was sprayed using a standard spray device onto the dental ulcer of the patient. Pain relief occurred within 1 minute. The duration of pain relief was about 3 hours.

In the case of “Ala-Lys-Pro-Ser-Tyr-Hyp-Thr-Tyr-Hyp-Lys-Procaine [Example 1]”, the “Duration of pain relief” value is reported as “about 3 hours” and the “Time to occurrence of pain relief” value is reported as no more than 1 min.
